Data from ChEMBL document CHEMBL5465560, “Selectivity Literature for EUbOPEN Chemogenomic Library” (2024).

Assays:
[1] = molecular target: T1, Testis-specific serine/threonine-protein kinase 1 (Homo sapiens) (UniProt Q9BXA7); experiment: Selectivity interaction (KinomeScan (DiscoverX)) EUB0000092b TSSK1A; details: at 10 µM
T1 sequence (whole entry): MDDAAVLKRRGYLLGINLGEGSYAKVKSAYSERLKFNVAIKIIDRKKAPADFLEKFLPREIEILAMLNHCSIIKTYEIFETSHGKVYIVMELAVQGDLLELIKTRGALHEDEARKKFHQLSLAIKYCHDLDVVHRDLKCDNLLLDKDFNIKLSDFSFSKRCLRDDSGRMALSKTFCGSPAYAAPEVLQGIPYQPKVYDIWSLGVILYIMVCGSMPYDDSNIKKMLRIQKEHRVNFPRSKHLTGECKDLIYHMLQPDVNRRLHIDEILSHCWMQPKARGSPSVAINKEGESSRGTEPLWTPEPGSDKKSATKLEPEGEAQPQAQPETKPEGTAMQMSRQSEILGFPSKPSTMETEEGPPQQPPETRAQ

[2] = molecular target: MAP kinase-interacting serine/threonine-protein kinase 1 (Homo sapiens) (UniProt Q9BUB5); experiment: Selectivity interaction (KinomeScan (DiscoverX)) EUB0000655a MKNK1; details: at 10 µM
[3] = molecular target: T2, Mitogen-activated protein kinase kinase kinase 5 (Homo sapiens) (UniProt Q99683); experiment: Selectivity interaction (KinomeScan (DiscoverX)) EUB0001079a MAP3K5; details: at 1 µM
T2 sequence (whole entry): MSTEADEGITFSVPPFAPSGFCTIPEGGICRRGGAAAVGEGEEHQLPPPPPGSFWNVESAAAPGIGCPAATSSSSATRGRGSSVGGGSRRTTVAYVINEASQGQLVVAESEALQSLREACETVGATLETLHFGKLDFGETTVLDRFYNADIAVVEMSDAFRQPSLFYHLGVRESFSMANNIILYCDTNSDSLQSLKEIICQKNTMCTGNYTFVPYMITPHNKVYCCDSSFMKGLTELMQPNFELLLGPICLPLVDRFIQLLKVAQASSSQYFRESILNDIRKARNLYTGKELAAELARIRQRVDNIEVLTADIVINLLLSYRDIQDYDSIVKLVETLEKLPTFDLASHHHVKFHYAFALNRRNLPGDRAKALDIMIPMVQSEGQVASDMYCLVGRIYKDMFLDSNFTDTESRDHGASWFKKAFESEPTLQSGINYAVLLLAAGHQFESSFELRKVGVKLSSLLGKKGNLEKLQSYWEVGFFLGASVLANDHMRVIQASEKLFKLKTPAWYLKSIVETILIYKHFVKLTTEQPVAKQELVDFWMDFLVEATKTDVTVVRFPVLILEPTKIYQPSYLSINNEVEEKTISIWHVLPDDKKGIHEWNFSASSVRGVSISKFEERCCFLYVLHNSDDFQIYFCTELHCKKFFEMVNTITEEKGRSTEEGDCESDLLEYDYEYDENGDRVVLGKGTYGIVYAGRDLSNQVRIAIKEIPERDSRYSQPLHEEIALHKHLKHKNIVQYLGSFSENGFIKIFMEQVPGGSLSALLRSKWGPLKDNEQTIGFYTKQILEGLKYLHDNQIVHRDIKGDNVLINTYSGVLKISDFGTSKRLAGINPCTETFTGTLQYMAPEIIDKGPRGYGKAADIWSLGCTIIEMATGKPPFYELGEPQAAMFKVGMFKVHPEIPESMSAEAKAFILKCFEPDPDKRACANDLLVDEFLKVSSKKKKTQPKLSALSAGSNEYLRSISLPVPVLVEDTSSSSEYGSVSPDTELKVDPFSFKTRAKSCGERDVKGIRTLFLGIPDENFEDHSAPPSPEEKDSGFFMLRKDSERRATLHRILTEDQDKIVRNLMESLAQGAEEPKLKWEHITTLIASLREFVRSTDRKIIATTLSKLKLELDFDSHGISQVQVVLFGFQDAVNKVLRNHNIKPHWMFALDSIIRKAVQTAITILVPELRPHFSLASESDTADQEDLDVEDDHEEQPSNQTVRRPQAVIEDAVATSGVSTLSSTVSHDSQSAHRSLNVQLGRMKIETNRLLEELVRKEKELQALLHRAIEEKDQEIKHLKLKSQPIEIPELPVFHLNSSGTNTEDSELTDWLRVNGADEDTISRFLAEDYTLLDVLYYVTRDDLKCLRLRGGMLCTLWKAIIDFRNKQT

[4] = molecular target: T3, Serine/threonine-protein kinase ULK1 (Homo sapiens) (UniProt O75385); details: at 10 µM
T3 sequence (whole entry): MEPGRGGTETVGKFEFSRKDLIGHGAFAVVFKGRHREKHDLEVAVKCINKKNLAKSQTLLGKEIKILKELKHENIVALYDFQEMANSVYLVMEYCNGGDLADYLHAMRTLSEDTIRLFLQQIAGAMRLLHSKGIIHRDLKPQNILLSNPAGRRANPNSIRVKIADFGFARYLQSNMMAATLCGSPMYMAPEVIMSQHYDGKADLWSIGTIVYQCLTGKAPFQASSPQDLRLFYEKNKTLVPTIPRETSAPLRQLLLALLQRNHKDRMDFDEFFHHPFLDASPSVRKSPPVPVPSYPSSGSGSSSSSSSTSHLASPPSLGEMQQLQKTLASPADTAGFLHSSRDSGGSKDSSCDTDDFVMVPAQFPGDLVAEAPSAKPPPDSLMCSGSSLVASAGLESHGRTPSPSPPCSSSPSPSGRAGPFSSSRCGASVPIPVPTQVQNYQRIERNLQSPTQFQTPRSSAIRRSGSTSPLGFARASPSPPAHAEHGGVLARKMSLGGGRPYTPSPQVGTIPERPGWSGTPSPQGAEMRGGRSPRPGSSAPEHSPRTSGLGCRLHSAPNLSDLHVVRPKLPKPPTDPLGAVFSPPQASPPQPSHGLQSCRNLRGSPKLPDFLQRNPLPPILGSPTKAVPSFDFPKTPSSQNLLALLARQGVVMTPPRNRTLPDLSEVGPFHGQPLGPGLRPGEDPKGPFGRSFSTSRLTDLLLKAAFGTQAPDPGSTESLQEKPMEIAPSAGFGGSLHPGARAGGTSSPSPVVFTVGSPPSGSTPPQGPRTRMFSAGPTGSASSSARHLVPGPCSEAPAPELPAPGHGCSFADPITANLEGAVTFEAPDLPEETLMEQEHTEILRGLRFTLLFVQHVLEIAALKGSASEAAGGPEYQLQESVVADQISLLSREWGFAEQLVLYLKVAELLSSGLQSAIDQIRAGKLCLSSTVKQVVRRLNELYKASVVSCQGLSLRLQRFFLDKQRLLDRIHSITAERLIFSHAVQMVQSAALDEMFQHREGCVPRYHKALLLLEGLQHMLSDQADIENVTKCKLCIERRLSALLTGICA

[5] = molecular target: Serine/threonine-protein kinase SIK1 (Homo sapiens) (UniProt P57059); experiment: Selectivity interaction (LanthaScreen Eu Kinase Binding Assay) EUB0001632a SIK1; details: at 10 µM
[6] = molecular target: Serine/threonine-protein kinase MRCK gamma (Homo sapiens) (UniProt Q6DT37); experiment: Selectivity interaction (KinomeScan (DiscoverX)) EUB0000045b CDC42BPG
Sequence of Serine/threonine-protein kinase MRCK gamma (Homo sapiens) (Q6DT37 whole entry): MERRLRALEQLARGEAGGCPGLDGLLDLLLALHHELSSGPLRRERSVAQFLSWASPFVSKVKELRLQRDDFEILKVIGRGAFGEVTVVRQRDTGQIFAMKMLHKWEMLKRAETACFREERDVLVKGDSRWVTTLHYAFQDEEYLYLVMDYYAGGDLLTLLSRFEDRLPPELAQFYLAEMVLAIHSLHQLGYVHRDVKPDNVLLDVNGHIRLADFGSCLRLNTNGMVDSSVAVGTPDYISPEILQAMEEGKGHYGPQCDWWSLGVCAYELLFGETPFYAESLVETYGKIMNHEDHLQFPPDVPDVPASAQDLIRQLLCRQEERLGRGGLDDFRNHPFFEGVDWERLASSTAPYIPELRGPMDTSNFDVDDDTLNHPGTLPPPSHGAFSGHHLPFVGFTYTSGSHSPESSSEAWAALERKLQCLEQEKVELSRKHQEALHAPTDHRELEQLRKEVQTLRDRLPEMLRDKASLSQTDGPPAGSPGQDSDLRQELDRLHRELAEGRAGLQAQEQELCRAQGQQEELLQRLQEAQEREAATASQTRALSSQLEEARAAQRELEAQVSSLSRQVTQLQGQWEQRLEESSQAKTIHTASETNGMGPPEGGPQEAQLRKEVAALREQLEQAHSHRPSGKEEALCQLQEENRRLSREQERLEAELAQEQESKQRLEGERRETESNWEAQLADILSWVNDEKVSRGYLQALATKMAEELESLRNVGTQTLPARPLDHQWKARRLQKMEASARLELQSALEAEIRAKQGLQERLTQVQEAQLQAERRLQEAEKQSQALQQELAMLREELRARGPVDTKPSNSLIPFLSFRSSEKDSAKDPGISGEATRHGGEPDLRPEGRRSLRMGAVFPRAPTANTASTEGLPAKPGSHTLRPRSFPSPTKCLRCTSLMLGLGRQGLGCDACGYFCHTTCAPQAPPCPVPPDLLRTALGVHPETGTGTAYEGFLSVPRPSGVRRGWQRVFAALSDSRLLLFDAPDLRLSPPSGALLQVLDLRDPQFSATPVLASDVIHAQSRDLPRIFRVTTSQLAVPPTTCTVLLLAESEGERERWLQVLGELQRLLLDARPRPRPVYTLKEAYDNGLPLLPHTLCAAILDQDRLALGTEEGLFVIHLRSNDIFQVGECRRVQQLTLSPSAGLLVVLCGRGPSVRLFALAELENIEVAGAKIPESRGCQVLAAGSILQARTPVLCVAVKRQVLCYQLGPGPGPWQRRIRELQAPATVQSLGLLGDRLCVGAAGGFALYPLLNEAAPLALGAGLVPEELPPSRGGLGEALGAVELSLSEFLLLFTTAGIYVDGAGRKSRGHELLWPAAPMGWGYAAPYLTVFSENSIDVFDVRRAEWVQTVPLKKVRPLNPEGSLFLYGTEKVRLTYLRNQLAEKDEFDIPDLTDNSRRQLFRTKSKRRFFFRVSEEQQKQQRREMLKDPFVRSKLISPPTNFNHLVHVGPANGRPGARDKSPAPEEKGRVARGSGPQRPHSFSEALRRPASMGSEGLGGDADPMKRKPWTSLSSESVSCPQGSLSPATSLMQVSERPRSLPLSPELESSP

Sequence of Serine/threonine-protein kinase SIK1 (Homo sapiens) (P57059 whole entry): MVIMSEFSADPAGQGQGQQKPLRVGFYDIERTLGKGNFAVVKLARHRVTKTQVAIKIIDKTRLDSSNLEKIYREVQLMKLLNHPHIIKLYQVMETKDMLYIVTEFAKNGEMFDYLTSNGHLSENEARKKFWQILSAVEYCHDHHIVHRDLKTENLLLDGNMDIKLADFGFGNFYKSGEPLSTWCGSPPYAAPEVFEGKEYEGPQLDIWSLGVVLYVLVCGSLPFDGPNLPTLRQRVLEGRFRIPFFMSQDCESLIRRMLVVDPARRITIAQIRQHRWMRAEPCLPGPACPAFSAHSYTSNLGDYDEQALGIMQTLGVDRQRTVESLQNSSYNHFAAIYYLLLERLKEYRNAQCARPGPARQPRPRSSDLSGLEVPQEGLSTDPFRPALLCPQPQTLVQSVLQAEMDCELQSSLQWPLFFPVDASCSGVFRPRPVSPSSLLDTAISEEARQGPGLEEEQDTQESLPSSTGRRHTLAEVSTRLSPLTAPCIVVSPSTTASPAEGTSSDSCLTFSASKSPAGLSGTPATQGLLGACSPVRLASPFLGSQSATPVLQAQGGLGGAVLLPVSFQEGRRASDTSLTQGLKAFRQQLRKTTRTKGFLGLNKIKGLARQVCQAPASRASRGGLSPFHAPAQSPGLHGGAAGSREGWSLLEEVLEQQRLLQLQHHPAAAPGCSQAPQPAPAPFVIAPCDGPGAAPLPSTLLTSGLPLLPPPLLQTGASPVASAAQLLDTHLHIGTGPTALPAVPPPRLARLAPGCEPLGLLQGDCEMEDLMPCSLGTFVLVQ
Sequence of MAP kinase-interacting serine/threonine-protein kinase 1 (Homo sapiens) (Q9BUB5 whole entry, looked up): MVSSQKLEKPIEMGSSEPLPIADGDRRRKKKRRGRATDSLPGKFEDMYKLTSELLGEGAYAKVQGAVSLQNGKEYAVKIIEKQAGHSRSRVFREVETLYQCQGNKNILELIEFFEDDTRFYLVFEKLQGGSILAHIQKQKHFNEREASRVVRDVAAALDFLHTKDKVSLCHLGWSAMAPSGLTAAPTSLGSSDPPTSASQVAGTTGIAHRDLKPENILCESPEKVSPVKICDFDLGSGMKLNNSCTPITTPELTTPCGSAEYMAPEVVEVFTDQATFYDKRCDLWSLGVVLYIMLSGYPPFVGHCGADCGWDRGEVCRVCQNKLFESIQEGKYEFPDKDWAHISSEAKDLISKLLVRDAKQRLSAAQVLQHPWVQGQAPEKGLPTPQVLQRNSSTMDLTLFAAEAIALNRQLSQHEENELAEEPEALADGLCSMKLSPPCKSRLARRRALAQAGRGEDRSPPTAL

CCC(=O)N1CCN(c2ccc(-n3c(=O)ccc4cnc5ccc(-c6cnc7ccccc7c6)cc5c43)cc2C(F)(F)F)CC1
% of control [1]: 100%

CN(C)CCOc1ccc(-c2nc(-c3ccncc3)c(-c3ccc4c(c3)CC/C4=N\O)[nH]2)cc1
% of control [2]: 81%

Nc1cnc(N2CCc3cc(S(=O)(=O)Nc4c(F)cc(Cl)cc4F)cc(N4CCCC4=O)c32)nc1 [TP-020n]
% of control [3]: 83%

Cc1cc([C@@H](C)Nc2ccccc2C(=O)O)c2nc(N3CCOCC3)cc(=O)n2c1 [AZD-6482]
% of control [4]: 91%

Cn1cc(-n2cnc3c(NCc4nc5cc(Cl)c(Cl)cc5[nH]4)nc(N4CCOCC4)nc32)cn1
% of inhibition [5]: -0.976%

C=CC(=O)Nc1cc(-n2c(=O)ccc3cnc4ccc(-c5ccc(NS(C)(=O)=O)cc5)cc4c32)ccc1C
% of control ([6]; at 1 µM): 100%
% of control ([6]; at 10 µM): 90%
